Laboratory results taken from patent US20020016279A1, “Enzymatic oxidation composition and process” (Unilever Home & Personal Care USA, Division of Conopco, Inc., priority 2000, published 2002).
Counter-ions that a name gives are not always drawn.

Assay: Stain bleach performance of the peroxidase/enhancer system on tomato stains (wash test, no hydrogen peroxide added)
Experimental: The potential of the enzymatic bleach system, consisting of a peroxidase enzyme and an enhancer, to bleach stains was assessed by washing cotton swatches soiled with tomato stains. The experiments were performed in 1 l beakers, to which 800 ml of wash solution were added. […]
The swatches were washed during 30 minutes at 30° C. After the wash, the swatches were tumble-dried and the reflectance spectra were measured using a Minolta spectrometer. The color differences between the swatch before and after the wash data were expressed in the CIELAB L*a*b* color space. In this color space, L* indicates lightness and a* and b* are the chromaticity coordinates. Color differences between two swatches are expressed as ΔE, which is calculated from the following equation:
ΔE={square root}{square root over (ΔL^2+Δa^2+Δb^2)}

[1] = cotton swatches soiled with tomato stains, enhancer 250 μM, peroxidase from Arthromyces ramosus 50 μg/l, wash solution 2 g/l, pH 10.5, 30 minutes at 30° C, no enhancer: 6.5

Row | ΔE [1] | ΔE (Example 2, enhancer 50 μM, peroxidase 5 mg/l, tomato stains, peroxidase without enhancer 7.7) | ΔE (Example 2, enhancer 100 μM, peroxidase 5 mg/l, tomato stains, peroxidase without enhancer 7.7) | ΔE (Example 2, enhancer 200 μM, peroxidase 5 mg/l, tomato stains, peroxidase without enhancer 7.7) | ΔE (Example 2, enhancer 200 μM, peroxidase None, tomato stains, None/None control 7.5) | Structure (SMILES)
1 | 7.4 | – | – | – | – | O=C(NNc1ccccc1)c1ccccc1 [2′-phenylbenzohydrazide]
2 | 8.1 | 8.3 | 9.0 | 9.6 | 7.4 | Nc1ccc(S(=O)(=O)NNC(=O)C(=O)NNc2ccccc2)cc1 [Ethanedioic acid, 2-[(4-aminophenyl)sulfonyl]-hydrazide-2-phenylhydrazide]
3 | 9.8 | – | – | – | – | COC(=O)C(=O)NNc1ccccc1 [Methyl [2-phenyl]hydrazide oxalate]

The next lines start with the compound.

Row | Structure (SMILES) | ΔE [1] | ΔE (Example 2, enhancer 50 μM, peroxidase 5 mg/l, tomato stains, peroxidase without enhancer 7.7) | ΔE (Example 2, enhancer 100 μM, peroxidase 5 mg/l, tomato stains, peroxidase without enhancer 7.7) | ΔE (Example 2, enhancer 200 μM, peroxidase 5 mg/l, tomato stains, peroxidase without enhancer 7.7) | ΔE (Example 2, enhancer 200 μM, peroxidase None, tomato stains, None/None control 7.5)
4 | CCOC(=O)C(=O)NNc1cccc(Cl)c1 [Ethyl [2-(3-chlorophenyl)]hydrazide oxalate] | 7.8 | – | – | – | –
5 | CCCOC(=O)C(=O)NNc1ccccc1 [Propyl [2-phenyl]hydrazide oxalate] | 9.8 | – | – | – | –
